Measurements reported in PMC9032233, “2-{5-[(Z,2Z)-2-Chloro-3-(4-nitrophenyl)-2-propenylidene]-4-oxo-2-thioxothiazolidin-3-yl}-3-methylbutanoic Acid as a Potential Anti-Breast Cancer Molecule” (International Journal of Molecular Sciences, 2022).

Assays:
[1] = test system: Beclin-1; assay: Beclin-1 concentration in MDA-MB-231 cell lysates (ELISA); assay type: cell-based, human; set-up: unit of the concentration uncertain; settings: MDA-MB-231, 5 (unit uncertain), 24 h; control 3.605 ng/mL
Description: (§1) High sensitivity assay kits (EIAab Science Co., Ltd., Wuhan, China; Abcam plc., Cambridge, United Kingdom; Cloud-Clone Corp., Katy, TX, USA) were used to determine the concentrations of selected proteins in cell lysates […] In brief, after trypsinization, cells were washed thrice with cold PBS and centrifuged at 1000× g for 5 min at 4 °C. Then, cells (1.5 × 10^6) were suspended in lysis buffer for whole-cell lysates. After the second centrifugation, cellular supernatants were frozen immediately at −70 °C. Untreated cancer cells were taken as a control.
(§2) The microtiter plates provided in the kits were pre-coated with an antibody specific to the analyzed antigen. The tests were carried out according to the manufacturer’s protocols.

[2] = test system: Beclin-1; assay: Beclin-1 concentration in MCF-7 cell lysates (ELISA); assay type: cell-based, human; settings: 5 mM, 24 h, control 7.965 ng/mL
Description: as §1, §2

[3] = test system: LC3B; assay: LC3B concentration in MCF-7 cell lysates (ELISA); assay type: cell-based, human; settings: MCF-7, 5 mM, 24 h; control 1.194 ng/mL
Description: as §1, §2

[4] = test system: LC3B; assay: LC3B concentration in MDA-MB-231 cell lysates (ELISA); assay type: cell-based, human; settings: MDA-MB-231, 5 mM, 24 h; control 1.504 ng/mL
Description: as §1, §2

[5] = test system: LC3A; assay: LC3A concentration in MDA-MB-231 cell lysates (ELISA); assay type: cell-based, human; settings: MDA-MB-231, 5 mM, 24 h; control 2.965 ng/mL
Description: as §1, §2

[6] = test system: LC3A; assay: LC3A concentration in MCF-7 cell lysates (ELISA); assay type: cell-based, human; settings: MCF-7, 5 mM, 24 h; control 6.726 ng/mL
Description: as §1, §2

[7] = Parallel artificial membrane permeability assay (PAMPA); assay type: in vitro ADME; settings: 200 µM in PBS pH 7.4, 5 h at RT, read-out: permeability coefficient Pe
Description: All in vitro assays used for the evaluation of Les-3331 ADME-Tox parameters were described previously. In brief, for the determination of permeability, Pre-coated PAMPA Plate System Gentest^TM was purchased from Corning (Tewksbury, MA, USA). […] PAMPA plates with compounds added to the donor wells were incubated for 5 h at RT. UPLC-MS Waters ACQUITY—TQD system with the TQ Detector (Waters, Milford, MI, USA) was used next for determination of compounds concentrations in donor and acceptor wells, which were required for calculation of permeability coefficient Pe according to formulas provided by the manufacturer.

Compound	Beclin-1 concentration [1] [ng/mL]	Beclin-1 concentration [2] [ng/mL]	LC3B concentration [3] [ng/mL]	LC3B concentration [4] [ng/mL]	LC3A concentration [5] [ng/mL]	LC3A concentration [6] [ng/mL]	Papp at 5 h, 200 µM [7] [×10⁻⁶ cm/s]
Cn1cnc(N)c2ncnc1-2 [3-MA, 3-Methyladenine]	2.399	6.344	0.664	0.628	0.994	4.423	–
Cn1c(=O)c2c(ncn2C)n(C)c1=O [caffeine, reference compound]	–	–	–	–	–	–	6.58
